Values after ≈ are worked out from the molar mass of the structure shown.
Columns and labels:
S. aureus RN4220 = experiment: MIC, agar plate dilution method, S. aureus RN4220; format: cell-based, Staphylococcus aureus; conditions: for minimal inhibitory concentration (MIC): S. aureus RN4220, Sensitive bacterium; for MIC: Staphylococcus aureus, RN4220, S. aureus RN4220, Sensitive bacterium, read-out: minimal inhibitory concentration (MIC)
Summary of the method: (§1)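 Minimal inhibitory concentration (μg/mL) was determined by agar plate dilution following the Japan Society of Chemotherapy method.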

S. aureus RN4220/pMS520 = experiment: MIC, agar plate dilution method, S. aureus RN4220/pMS520; format: cell-based, Staphylococcus aureus; conditions: for minimal inhibitory concentration (MIC): S. aureus RN4220/pMS520, MRSA; for MIC: Staphylococcus aureus, MRSA, read-out: minimal inhibitory concentration (MIC), S. aureus RN4220/pMS520, MRSA
Summary of the method: as §1

S. aureus MF490 = experiment: MIC, agar plate dilution method, S. aureus MF490; format: cell-based, Staphylococcus aureus; conditions: for minimal inhibitory concentration (MIC): S. aureus MF490, MRSA; for MIC: Staphylococcus aureus, MRSA, read-out: minimal inhibitory concentration (MIC)
Summary of the method: as §1

E. faecium ATCC19434 = experiment: MIC, agar plate dilution method, E. faecium ATCC19434; format: cell-based, Enterococcus faecium; conditions: for minimal inhibitory concentration (MIC): E. faecium ATCC19434; for MIC: Enterococcus faecium, ATCC19434, E. faecium ATCC19434, read-out: minimal inhibitory concentration (MIC)
Summary of the method: as §1

E. coli JM109/pMW218 = experiment: MIC, agar plate dilution method, E. coli JM109/pMW218; format: cell-based, Escherichia coli; conditions: for minimal inhibitory concentration (MIC): E. coli JM109/pMW218, Sensitive bacterium; for MIC: Escherichia coli, JM109/PMW218, E. coli JM109/pMW218, Sensitive bacterium, read-out: minimal inhibitory concentration (MIC)
Summary of the method: as §1

[1] = test system: K. pneumoniae ATCC BAA-1705; experiment: MIC, agar plate dilution method, K. pneumoniae ATCC BAA-1705; format: cell-based, Klebsiella pneumoniae; conditions: for minimal inhibitory concentration (MIC): K. pneumoniae ATCC BAA-1705, KPC-producing strain; for MIC: Klebsiella pneumoniae, ATCCBAA1705, K. pneumoniae ATCC BAA-1705, KPC-producing strain, read-out: minimal inhibitory concentration (MIC)
Summary of the method: as §1

[2] = test system: K. pneumoniae ATCC BAA-2146; experiment: MIC, agar plate dilution method, K. pneumoniae ATCC BAA-2146; format: cell-based, Klebsiella pneumoniae; conditions: for minimal inhibitory concentration (MIC): K. pneumoniae ATCC BAA-2146, NDM-producing strain; for MIC: Klebsiella pneumoniae, ATCCBAA2146, K. pneumoniae ATCC BAA-2146, NDM-producing strain, read-out: minimal inhibitory concentration (MIC)
Summary of the method: as §1

[3] = test system: A. baumannii ATCC BAA-1710; experiment: MIC, agar plate dilution method, A. baumannii ATCC BAA-1710; format: cell-based, Acinetobacter baumannii; conditions: for minimal inhibitory concentration (MIC): A. baumannii ATCC BAA-1710, MDRA; for MIC: Acinetobacter baumannii, ATCCBAA1710, A. baumannii ATCC BAA-1710, MDRA, read-out: minimal inhibitory concentration (MIC)
Summary of the method: as §1

S. marcescens TH-0447 = experiment: MIC, agar plate dilution method, S. marcescens TH-0447; format: cell-based, Serratia marcescens; conditions: for minimal inhibitory concentration (MIC): S. marcescens TH-0447, AMK-resistant; for MIC: Serratia marcescens, TH0447, S. marcescens TH-0447, AMK-resistant, read-out: minimal inhibitory concentration (MIC)
Summary of the method: as §1

S. marcescens GN6944 = experiment: MIC, agar plate dilution method, S. marcescens GN6944; format: cell-based, Serratia marcescens; conditions: S. marcescens GN6944, GM-resistant; for MIC: Serratia marcescens, read-out: minimal inhibitory concentration (MIC)
Summary of the method: as §1

P. aeruginosa PAO1 = experiment: MIC, agar plate dilution method, P. aeruginosa PAO1; format: cell-based, Pseudomonas aeruginosa; conditions: for minimal inhibitory concentration (MIC): P. aeruginosa PAO1, Sensitive bacterium; for MIC: Pseudomonas aeruginosa, PAO1, P. aeruginosa PAO1, Sensitive bacterium, read-out: minimal inhibitory concentration (MIC)
Summary of the method: as §1

P. aeruginosa PAO1/GN315 = experiment: MIC, agar plate dilution method, P. aeruginosa PAO1/GN315; format: cell-based, Pseudomonas aeruginosa; conditions: for minimal inhibitory concentration (MIC): P. aeruginosa PAO1/GN315, AMK-resistant; for MIC: Pseudomonas aeruginosa, read-out: minimal inhibitory concentration (MIC), P. aeruginosa PAO1/GN315, AMK-resistant
Summary of the method: as §1

P. aeruginosa MSC17707 = experiment: MIC, agar plate dilution method, P. aeruginosa MSC17707; format: cell-based, Pseudomonas aeruginosa; conditions: for minimal inhibitory concentration (MIC): P. aeruginosa MSC17707, AMK-resistant; for MIC: Pseudomonas aeruginosa, MSC17707, P. aeruginosa MSC17707, AMK-resistant, read-out: minimal inhibitory concentration (MIC)
Summary of the method: as §1

P. aeruginosa MSC01035 = experiment: MIC, agar plate dilution method, P. aeruginosa MSC01035; format: cell-based, Pseudomonas aeruginosa; conditions: P. aeruginosa MSC01035, ABK-resistant; for MIC: Pseudomonas aeruginosa, read-out: minimal inhibitory concentration (MIC)
Summary of the method: as §1

SMILES | minimal inhibitory concentration (MIC) (S. aureus RN4220) | minimal inhibitory concentration (MIC) (S. aureus RN4220/pMS520) | minimal inhibitory concentration (MIC) (S. aureus MF490) | minimal inhibitory concentration (MIC) (E. faecium ATCC19434) | minimal inhibitory concentration (MIC) (E. coli JM109/pMW218) | minimal inhibitory concentration (MIC) [1] | minimal inhibitory concentration (MIC) [2] | minimal inhibitory concentration (MIC) [3] | minimal inhibitory concentration (MIC) (S. marcescens TH-0447) | minimal inhibitory concentration (MIC) (S. marcescens GN6944) | minimal inhibitory concentration (MIC) (P. aeruginosa PAO1) | minimal inhibitory concentration (MIC) (P. aeruginosa PAO1/GN315) | minimal inhibitory concentration (MIC) (P. aeruginosa MSC17707) | minimal inhibitory concentration (MIC) (P. aeruginosa MSC01035) | also measured
CNC1C(OC2OC(CO)C(N)C(O)C2O)OC2CC(N)C(OC3C(N)CC(N)CC3N)OC2C1O (centres unmarked) [Compound C11, 5-amino-5,6-dideoxyapramycin] | 8 µg/mL (≈ 15.3 µM) | 8 µg/mL (≈ 15.3 µM) | 16 µg/mL (≈ 30.6 µM) | 32 µg/mL (≈ 61.2 µM) | 2 µg/mL (≈ 3.83 µM) | 4 µg/mL (≈ 7.65 µM) | 4 µg/mL (≈ 7.65 µM) | 16 µg/mL (≈ 30.6 µM) | 16 µg/mL (≈ 30.6 µM) | 16 µg/mL (≈ 30.6 µM) | 16 µg/mL (≈ 30.6 µM) | 16 µg/mL (≈ 30.6 µM) | 16 µg/mL (≈ 30.6 µM) | 32 µg/mL (≈ 61.2 µM) | 
CNC1C(OC2OC(CO)C(N)C(O)C2O)OC2CC(N)C(OC3C(N)CC(N)C(O)C3N)OC2C1O (centres unmarked) [Compound D2, 5-amino-5-deoxy-5-epiapramycin] | 4 µg/mL (≈ 7.43 µM) | 4 µg/mL (≈ 7.43 µM) | 8 µg/mL (≈ 14.9 µM) | 32 µg/mL (≈ 59.4 µM) | 2 µg/mL (≈ 3.71 µM) | 2 µg/mL (≈ 3.71 µM) | 2 µg/mL (≈ 3.71 µM) | 8 µg/mL (≈ 14.9 µM) | 8 µg/mL (≈ 14.9 µM) | 4 µg/mL (≈ 7.43 µM) | 4 µg/mL (≈ 7.43 µM) | 4 µg/mL (≈ 7.43 µM) | 8 µg/mL (≈ 14.9 µM) | 4 µg/mL (≈ 7.43 µM) | 
CN[C@@H]1[C@@H](O[C@H]2O[C@H](CO)[C@@H](N)[C@H](O)[C@H]2O)O[C@H]2C[C@@H](N)[C@@H](O[C@H]3[C@H](N)[C@@H](O)[C@H](N)C[C@@H]3N)O[C@@H]2[C@@H]1O [Compound E3, 5-amino-5-deoxyapramycin] | 8 µg/mL (≈ 14.9 µM) | 8 µg/mL (≈ 14.9 µM) | 16 µg/mL (≈ 29.7 µM) | 64 µg/mL (≈ 119 µM) | 4 µg/mL (≈ 7.43 µM) | 4 µg/mL (≈ 7.43 µM) | 4 µg/mL (≈ 7.43 µM) | 16 µg/mL (≈ 29.7 µM) | 16 µg/mL (≈ 29.7 µM) | 16 µg/mL (≈ 29.7 µM) | 16 µg/mL (≈ 29.7 µM) | 16 µg/mL (≈ 29.7 µM) | 16 µg/mL (≈ 29.7 µM) | 16 µg/mL (≈ 29.7 µM) | 
CN[C@@H]1[C@@H](O[C@H]2O[C@H](CO)[C@@H](N)[C@H](O)[C@H]2O)O[C@H]2C[C@@H](N)[C@@H](O[C@H]3[C@@H](F)[C@H](N)[C@H](N)C[C@@H]3N)O[C@@H]2[C@@H]1O [Compound F3, 6-amino-5,6-dideoxy-5,6-diepi-5-fluoroapramycin] | 8 µg/mL (≈ 14.8 µM) | 8 µg/mL (≈ 14.8 µM) | 32 µg/mL (≈ 59.2 µM) | 64 µg/mL (≈ 118 µM) | 8 µg/mL (≈ 14.8 µM) | 4 µg/mL (≈ 7.4 µM) | 4 µg/mL (≈ 7.4 µM) | 16 µg/mL (≈ 29.6 µM) | 16 µg/mL (≈ 29.6 µM) | 16 µg/mL (≈ 29.6 µM) | 16 µg/mL (≈ 29.6 µM) | 16 µg/mL (≈ 29.6 µM) | 16 µg/mL (≈ 29.6 µM) | 32 µg/mL (≈ 59.2 µM) | 
CNC1C(O[C@H]2OC(CO)[C@@H](N)[C@H](O)C2N)O[C@H]2CC(N)[C@@H](O[C@@H]3C(N)C[C@@H](N)C(O)[C@H]3O)OC2C1O (some centres unmarked) [Compound G7, 2″-amino-2″-deoxy-2″,3″-diepiapramycin] |  |  |  |  |  |  |  |  |  |  |  |  |  |  | MIC (S. aureus RN4220): 4 µg/mL (≈ 7.43 µM); MIC (S. aureus RN4220/pMS520): 8 µg/mL (≈ 14.9 µM); MIC (S. aureus MF490): 16 µg/mL (≈ 29.7 µM); MIC (E. faecium ATCC19434): 16 µg/mL (≈ 29.7 µM); MIC (E. coli JM109/pMW218): 1 µg/mL (≈ 1.86 µM); MIC [1]: 2 µg/mL (≈ 3.71 µM); MIC [2]: 4 µg/mL (≈ 7.43 µM); MIC [3]: 8 µg/mL (≈ 14.9 µM); MIC (S. marcescens TH-0447): 8 µg/mL (≈ 14.9 µM); MIC (S. marcescens GN6944): 8 µg/mL (≈ 14.9 µM); MIC (P. aeruginosa PAO1): 8 µg/mL (≈ 14.9 µM); MIC (P. aeruginosa PAO1/GN315): 8 µg/mL (≈ 14.9 µM); MIC (P. aeruginosa MSC17707): 8 µg/mL (≈ 14.9 µM); MIC (P. aeruginosa MSC01035): 16 µg/mL (≈ 29.7 µM)
CNC1C(O[C@H]2OC(CO)[C@@H](N)[C@H](N)C2O)O[C@H]2CC(N)[C@@H](O[C@@H]3C(N)C[C@@H](N)C(O)[C@H]3O)OC2C1O (some centres unmarked) [Compound G8, 3″-amino-3″-deoxyapramycin] |  |  |  |  |  |  |  |  |  |  |  |  |  |  | MIC (S. aureus RN4220): 8 µg/mL (≈ 14.9 µM); MIC (S. aureus RN4220/pMS520): 8 µg/mL (≈ 14.9 µM); MIC (S. aureus MF490): 32 µg/mL (≈ 59.4 µM); MIC (E. faecium ATCC19434): 32 µg/mL (≈ 59.4 µM); MIC (E. coli JM109/pMW218): 2 µg/mL (≈ 3.71 µM); MIC [1]: 4 µg/mL (≈ 7.43 µM); MIC [2]: 4 µg/mL (≈ 7.43 µM); MIC [3]: 16 µg/mL (≈ 29.7 µM); MIC (S. marcescens TH-0447): 16 µg/mL (≈ 29.7 µM); MIC (S. marcescens GN6944): 16 µg/mL (≈ 29.7 µM); MIC (P. aeruginosa PAO1): 8 µg/mL (≈ 14.9 µM); MIC (P. aeruginosa PAO1/GN315): 16 µg/mL (≈ 29.7 µM); MIC (P. aeruginosa MSC17707): 16 µg/mL (≈ 29.7 µM); MIC (P. aeruginosa MSC01035): 16 µg/mL (≈ 29.7 µM)
CN[C@@H]1[C@@H](O[C@H]2O[C@H](CO)[C@@H](N)[C@@H](O)[C@H]2O)O[C@H]2C[C@@H](N)[C@@H](O[C@H]3[C@H](O)[C@@H](O)[C@H](N)C[C@@H]3N)O[C@@H]2[C@@H]1O [Compound H3, 3″-epiapramycin] | 4 µg/mL (≈ 7.41 µM) | 4 µg/mL (≈ 7.41 µM) | 8 µg/mL (≈ 14.8 µM) | 16 µg/mL (≈ 29.7 µM) | 2 µg/mL (≈ 3.71 µM) | 2 µg/mL (≈ 3.71 µM) | 2 µg/mL (≈ 3.71 µM) | 8 µg/mL (≈ 14.8 µM) | 8 µg/mL (≈ 14.8 µM) | 8 µg/mL (≈ 14.8 µM) | 8 µg/mL (≈ 14.8 µM) | 8 µg/mL (≈ 14.8 µM) | 8 µg/mL (≈ 14.8 µM) | 8 µg/mL (≈ 14.8 µM) | 

Source: patent US11135234B2, “Effective aminoglycoside antibiotic for multidrug-resistant bacteria” (MICROBIAL CHEMISTRY RESEARCH FOUNDATION, priority 2015, dated 2021)
